Measured values taken from paper PMC9474474, “Determination of pharmacokinetics and tissue distribution of a novel lutetium-labeled PSMA-targeted ligand, ^177Lu-DOTA-PSMA-GUL, in rats by using LC–MS/MS” (Scientific Reports, 2022).

Tests used:
[1] = Excretion into urine and feces for 24 h after i.v. injection in rats; assay type: in vivo, Male Sprague–Dawley rats
Method: Freshly prepared ^175Lu-DOTA-PSMA-GUL solution (2.1 mg/mL) was administered by i.v. bolus injection via the penile vein (n = 5–7) at three doses of 1, 2, and 5 mg/kg. Approximately 0.3 mL of the jugular venous blood samples were collected at predetermined times after i.v. injection. Plasma samples were harvested by centrifugation of the blood samples at 3220 × g for 10 min. Urine and feces samples were collected at 4, 8, 12, and 24 h after i.v. injection. All samples were stored at -70 °C until analysis.
The plasma concentration–time data were analyzed by non-compartmental method using Phoenix® WinNonlin® (Pharsight, NC, USA). The fraction of ^175Lu-DOTA-PSMA-GUL excreted into urine (Furine) and feces (Ffeces) were calculated by the ratio of the total amount of drug excreted in the urine and feces to the fraction of the dose, respectively. The tissue-to-plasma partition coefficients (KP) were calculated as the tissue-to-plasma concentration ratios.

[2] = Stability in rat plasma, urine, feces and 12 tissues (LC–MS/MS validation); assay type: in vitro ADME; details: for Stability Freeze-thaw: 4 cycles; for Stability Autosampler: 4 °C for 24 h; for Stability Long-term: -70 °C for two weeks; for Stability Short-term: room temperature for 4 h
Method: Analytical validation data including stability and process efficiency are shown in Supplementary Tables 3 and 4. […] The process efficiency in each biological matrix is generally consistent (Supplementary Table 4). […] For plasma samples, the dilution integrity was evaluated for a 10- and 20-fold dilution of QC samples at 40,000 ng/mL, which was two times higher than ULOQ, with blank matrix. The accuracy for dilution integrity was 105.56% and 102.21%, while precision was 1.03% and 2.39% for tenfold and 20-fold dilution, respectively (n = 3, each).
Supplementary Table 3. Stability (%) of 175Lu-DOTA-PSMA-GUL in the rat plasma, urine, feces,
Matrix Concentration Short-term Long-term Freeze-thaw Autosampler
(ng/mL) (n=4) (n=4) (n=4) (n=4)

[3] = rat small intestine, 4,000 ng/mL

Q: Which results are given for `O=C([O-])CN1CCN(CC(=O)[O-])CCN(CC(=O)[O-])C(Cc2ccc(NC(=S)NCCCC[C@H](NC(=O)N[C@@H](CCC(=O)O)C(=O)O)C(=O)O)cc2)CN(CC(=O)[O-])CC1.[Lu+3]` (stereo partly drawn) [^175Lu-DOTA-PSMA-GUL, Lutetium labeled-1,4,7,10-tetraazacyclododecane-1,4,7,10-tetraacetic acid (DOTA)-PSMA-GUL]?
A: Ffeces (fraction excreted into feces) ([1]; i.v. injection 1 mg/kg): 5.46 ± 4.11%; Furine (fraction excreted into urine) ([1]; i.v. injection 1 mg/kg): 58.71 ± 21.26%; Ffeces (fraction excreted into feces) ([1]; i.v. injection 2 mg/kg): 1.08 ± 0.76%; Furine (fraction excreted into urine) ([1]; i.v. injection 2 mg/kg): 54.59 ± 25.98%; Ffeces (fraction excreted into feces) ([1]; i.v. injection 5 mg/kg): 6.41 ± 3.68%; Furine (fraction excreted into urine) ([1]; i.v. injection 5 mg/kg): 59.89 ± 22.82%; Stability Freeze-thaw ([2]; rat brain, 400 ng/mL): 96.03 ± 3.73%; Stability Autosampler ([2]; rat brain, 400 ng/mL): 96.57 ± 0.76%; Stability Long-term ([2]; rat brain, 400 ng/mL): 94.77 ± 3.27%; Stability Short-term ([2]; rat brain, 400 ng/mL): 92.98 ± 2.86%; Stability Freeze-thaw ([2]; rat brain, 4,000 ng/mL): 102.05 ± 3.19%; Stability Autosampler ([2]; rat brain, 4,000 ng/mL): 90.60 ± 1.22%; Stability Long-term ([2]; rat brain, 4,000 ng/mL): 95.22 ± 2.73%; Stability Short-term ([2]; rat brain, 4,000 ng/mL): 98.51 ± 2.55%; Stability Freeze-thaw ([2]; rat fat, 400 ng/mL): 91.54 ± 1.36%; Stability Autosampler ([2]; rat fat, 400 ng/mL): 95.57 ± 4.47%; Stability Long-term ([2]; rat fat, 400 ng/mL): 96.21 ± 4.47%; Stability Short-term ([2]; rat fat, 400 ng/mL): 98.86 ± 3.38%; Stability Freeze-thaw ([2]; rat fat, 4,000 ng/mL): 99.64 ± 2.85%; Stability Autosampler ([2]; rat fat, 4,000 ng/mL): 95.05 ± 0.70%; Stability Long-term ([2]; rat fat, 4,000 ng/mL): 94.41 ± 3.10%; Stability Short-term ([2]; rat fat, 4,000 ng/mL): 96.74 ± 3.52%; Stability Freeze-thaw ([2]; rat feces, 400 ng/mL): 104.54 ± 6.86%; Stability Autosampler ([2]; rat feces, 400 ng/mL): 97.85 ± 3.82%; Stability Long-term ([2]; rat feces, 400 ng/mL): 103.52 ± 1.25%; Stability Short-term ([2]; rat feces, 400 ng/mL): 90.69 ± 6.38%; Stability Freeze-thaw ([2]; rat feces, 4,000 ng/mL): 105.65 ± 2.20%; Stability Autosampler ([2]; rat feces, 4,000 ng/mL): 104.03 ± 2.53%; Stability Long-term ([2]; rat feces, 4,000 ng/mL): 101.50 ± 1.39%; Stability Short-term ([2]; rat feces, 4,000 ng/mL): 104.76 ± 2.40%; Stability Autosampler ([2]; rat heart, 400 ng/mL): 98.75 ± 4.29%; Stability Long-term ([2]; rat heart, 400 ng/mL): 93.97 ± 1.45%; Stability Short-term ([2]; rat heart, 400 ng/mL): 95.08 ± 10.83%; Stability Freeze-thaw ([2]; rat heart, 4,000 ng/mL): 97.19 ± 8.21%; Stability Autosampler ([2]; rat heart, 4,000 ng/mL): 92.56 ± 3.26%; Stability Long-term ([2]; rat heart, 4,000 ng/mL): 93.50 ± 2.78%; Stability Short-term ([2]; rat heart, 4,000 ng/mL): 91.74 ± 0.93%; Stability Freeze-thaw ([2]; rat kidney, 400 ng/mL): 94.83 ± 2.49%; Stability Autosampler ([2]; rat kidney, 400 ng/mL): 95.72 ± 4.19%; Stability Long-term ([2]; rat kidney, 400 ng/mL): 95.92 ± 2.97%; Stability Short-term ([2]; rat kidney, 400 ng/mL): 95.45 ± 3.51%; Stability Freeze-thaw ([2]; rat kidney, 4,000 ng/mL): 94.30 ± 1.02%; Stability Autosampler ([2]; rat kidney, 4,000 ng/mL): 97.98 ± 2.82%; Stability Long-term ([2]; rat kidney, 4,000 ng/mL): 94.61 ± 2.50%; Stability Short-term ([2]; rat kidney, 4,000 ng/mL): 98.14 ± 3.63%; Stability Freeze-thaw ([2]; rat liver, 400 ng/mL): 95.93 ± 3.91%; Stability Autosampler ([2]; rat liver, 400 ng/mL): 97.39 ± 3.47%; Stability Long-term ([2]; rat liver, 400 ng/mL): 97.86 ± 1.87%; Stability Short-term ([2]; rat liver, 400 ng/mL): 98.94 ± 5.66%; Stability Freeze-thaw ([2]; rat liver, 4,000 ng/mL): 91.72 ± 2.23%; Stability Autosampler ([2]; rat liver, 4,000 ng/mL): 92.47 ± 2.32%; Stability Long-term ([2]; rat liver, 4,000 ng/mL): 91.83 ± 1.56%; Stability Short-term ([2]; rat liver, 4,000 ng/mL): 91.39 ± 2.47%; Stability Freeze-thaw ([2]; rat lung, 400 ng/mL): 96.40 ± 1.10%; Stability Autosampler ([2]; rat lung, 400 ng/mL): 98.84 ± 7.51%; Stability Long-term ([2]; rat lung, 400 ng/mL): 99.08 ± 2.59%; Stability Short-term ([2]; rat lung, 400 ng/mL): 98.55 ± 4.32%; Stability Freeze-thaw ([2]; rat lung, 4,000 ng/mL): 97.55 ± 0.70%; Stability Autosampler ([2]; rat lung, 4,000 ng/mL): 102.00 ± 4.06%; Stability Long-term ([2]; rat lung, 4,000 ng/mL): 95.79 ± 1.75%; Stability Short-term ([2]; rat lung, 4,000 ng/mL): 96.87 ± 1.97%; Stability Freeze-thaw ([2]; rat muscle, 400 ng/mL): 101.47 ± 2.25%; Stability Autosampler ([2]; rat muscle, 400 ng/mL): 94.93 ± 2.73%; Stability Long-term ([2]; rat muscle, 400 ng/mL): 99.56 ± 2.47%; Stability Short-term ([2]; rat muscle, 400 ng/mL): 100.99 ± 2.76%; Stability Freeze-thaw ([2]; rat muscle, 4,000 ng/mL): 94.67 ± 0.44%; Stability Autosampler ([2]; rat muscle, 4,000 ng/mL): 98.62 ± 2.06%; Stability Long-term ([2]; rat muscle, 4,000 ng/mL): 99.74 ± 4.41%; Stability Short-term ([2]; rat muscle, 4,000 ng/mL): 99.13 ± 2.50%; Stability Freeze-thaw ([2]; rat plasma, 80 ng/mL): 102.92 ± 2.77%; Stability Autosampler ([2]; rat plasma, 80 ng/mL): 97.69 ± 3.09%; Stability Long-term ([2]; rat plasma, 80 ng/mL): 100.61 ± 2.11%; Stability Short-term ([2]; rat plasma, 80 ng/mL): 106.18 ± 0.41%; Stability Freeze-thaw ([2]; rat plasma, 16,000 ng/mL): 98.68 ± 1.21%; Stability Autosampler ([2]; rat plasma, 16,000 ng/mL): 102.82 ± 1.73%; Stability Long-term ([2]; rat plasma, 16,000 ng/mL): 99.20 ± 0.51%; Stability Short-term ([2]; rat plasma, 16,000 ng/mL): 101.14 ± 2.43%; Stability Freeze-thaw ([2]; rat prostate, 400 ng/mL): 95.17 ± 3.44%; Stability Autosampler ([2]; rat prostate, 400 ng/mL): 97.82 ± 2.46%; Stability Long-term ([2]; rat prostate, 400 ng/mL): 95.50 ± 3.57%; Stability Short-term ([2]; rat prostate, 400 ng/mL): 95.76 ± 1.48%; Stability Freeze-thaw ([2]; rat prostate, 4,000 ng/mL): 99.85 ± 2.74%; Stability Autosampler ([2]; rat prostate, 4,000 ng/mL): 96.30 ± 0.83%; Stability Long-term ([2]; rat prostate, 4,000 ng/mL): 97.12 ± 3.90%; Stability Short-term ([2]; rat prostate, 4,000 ng/mL): 99.30 ± 3.24%; Stability Freeze-thaw ([2]; rat small intestine, 400 ng/mL): 99.15 ± 6.00%; Stability Autosampler ([2]; rat small intestine, 400 ng/mL): 98.68 ± 2.52%; Stability Long-term ([2]; rat small intestine, 400 ng/mL): 98.80 ± 2.76%; Stability Short-term ([2]; rat small intestine, 400 ng/mL): 99.17 ± 2.35%; Stability Freeze-thaw [2, 3]: 100.54 ± 2.33%; Stability Autosampler [2, 3]: 104.13 ± 2.24%; Stability Long-term [2, 3]: 103.65 ± 4.10%; Stability Short-term [2, 3]: 102.12 ± 2.51%; Stability Freeze-thaw ([2]; rat spleen, 400 ng/mL): 98.46 ± 3.74%; Stability Autosampler ([2]; rat spleen, 400 ng/mL): 102.59 ± 1.80%; Stability Long-term ([2]; rat spleen, 400 ng/mL): 97.10 ± 3.45%; Stability Short-term ([2]; rat spleen, 400 ng/mL): 101.61 ± 2.41%; Stability Freeze-thaw ([2]; rat spleen, 4,000 ng/mL): 104.53 ± 2.39%; Stability Autosampler ([2]; rat spleen, 4,000 ng/mL): 102.93 ± 2.02%; Stability Long-term ([2]; rat spleen, 4,000 ng/mL): 106.40 ± 3.85%; Stability Short-term ([2]; rat spleen, 4,000 ng/mL): 104.24 ± 4.36%; Stability Freeze-thaw ([2]; rat stomach, 400 ng/mL): 97.59 ± 1.68%; Stability Autosampler ([2]; rat stomach, 400 ng/mL): 100.00 ± 4.55%; Stability Long-term ([2]; rat stomach, 400 ng/mL): 99.72 ± 2.41%; Stability Short-term ([2]; rat stomach, 400 ng/mL): 98.96 ± 4.28%; Stability Freeze-thaw ([2]; rat stomach, 4,000 ng/mL): 92.47 ± 1.38%; Stability Autosampler ([2]; rat stomach, 4,000 ng/mL): 93.61 ± 2.79%; Stability Long-term ([2]; rat stomach, 4,000 ng/mL): 94.79 ± 3.41%; Stability Short-term ([2]; rat stomach, 4,000 ng/mL): 96.98 ± 3.91%; Stability Freeze-thaw ([2]; rat testis, 400 ng/mL): 107.18 ± 0.85%; Stability Autosampler ([2]; rat testis, 400 ng/mL): 101.68 ± 6.54%; Stability Long-term ([2]; rat testis, 400 ng/mL): 103.74 ± 3.80%; Stability Short-term ([2]; rat testis, 400 ng/mL): 100.51 ± 3.98%; Stability Freeze-thaw ([2]; rat testis, 4,000 ng/mL): 99.52 ± 0.96%; Stability Autosampler ([2]; rat testis, 4,000 ng/mL): 97.56 ± 4.96%; Stability Long-term ([2]; rat testis, 4,000 ng/mL): 94.96 ± 4.89%; Stability Short-term ([2]; rat testis, 4,000 ng/mL): 101.72 ± 1.48%; Stability Freeze-thaw ([2]; rat urine, 400 ng/mL): 105.67 ± 4.65%; Stability Autosampler ([2]; rat urine, 400 ng/mL): 94.03 ± 2.84%; Stability Long-term ([2]; rat urine, 400 ng/mL): 98.36 ± 1.67%; Stability Short-term ([2]; rat urine, 400 ng/mL): 91.67 ± 2.58%; Stability Freeze-thaw ([2]; rat urine, 16,000 ng/mL): 92.41 ± 1.12%; Stability Autosampler ([2]; rat urine, 16,000 ng/mL): 104.69 ± 2.03%; Stability Long-term ([2]; rat urine, 16,000 ng/mL): 100.28 ± 1.39%; Stability Short-term ([2]; rat urine, 16,000 ng/mL): 106.46 ± 1.17%; stability in each biological matrix ([2]; short-term, long-term, freeze–thaw and autosampler storage conditions): stable
